Assay results from ChEMBL document CHEMBL4308886, “Molecular features characterizing non-peptide selectivity to the human B1 and B2 bradykinin receptors” (Bioorg Med Chem Lett, 2019).

Columns and labels:
Format in all cases: cell-based
[1] = target: T1, B1 bradykinin receptor (Homo sapiens) (UniProt P46663); assay: Displacement of [3H][…] from human recombinant bradykinin B1 receptor expressed in CHO cells at 50 uM measured after 1 hr relative to control
T1 sequence (whole entry): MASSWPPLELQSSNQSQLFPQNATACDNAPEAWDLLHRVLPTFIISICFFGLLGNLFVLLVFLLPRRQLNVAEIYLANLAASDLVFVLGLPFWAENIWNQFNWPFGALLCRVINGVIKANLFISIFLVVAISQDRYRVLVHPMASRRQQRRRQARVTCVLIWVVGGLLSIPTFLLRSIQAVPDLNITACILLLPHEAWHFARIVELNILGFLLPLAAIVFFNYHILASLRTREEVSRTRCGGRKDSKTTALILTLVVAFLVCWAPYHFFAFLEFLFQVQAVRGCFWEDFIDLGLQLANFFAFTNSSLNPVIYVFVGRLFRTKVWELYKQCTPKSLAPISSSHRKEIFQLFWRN

[2] = target: T2, B2 bradykinin receptor (Homo sapiens) (UniProt P30411); assay: Displacement of [3H]bradykinin from human recombinant bradykinin B2 receptor expressed in CHO cells at 50 uM measured after 1 hr relative to control
T2 sequence (whole entry): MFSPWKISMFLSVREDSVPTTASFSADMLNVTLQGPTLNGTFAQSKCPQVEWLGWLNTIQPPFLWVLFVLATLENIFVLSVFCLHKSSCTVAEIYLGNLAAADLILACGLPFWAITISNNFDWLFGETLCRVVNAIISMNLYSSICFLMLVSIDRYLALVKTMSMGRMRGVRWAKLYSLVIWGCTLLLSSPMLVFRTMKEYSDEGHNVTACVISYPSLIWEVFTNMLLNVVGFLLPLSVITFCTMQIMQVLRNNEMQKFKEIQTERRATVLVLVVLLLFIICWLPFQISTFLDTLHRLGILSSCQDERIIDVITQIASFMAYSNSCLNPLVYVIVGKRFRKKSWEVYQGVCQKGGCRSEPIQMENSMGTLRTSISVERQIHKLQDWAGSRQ

[3] = target: T1, B1 bradykinin receptor (Homo sapiens); assay: Displacement of [3H][…] from human recombinant bradykinin B1 receptor expressed in CHO cells at 10 uM measured after 1 hr relative to control
[4] = target: T2, B2 bradykinin receptor (Homo sapiens); assay: Displacement of [3H]bradykinin from human recombinant bradykinin B2 receptor expressed in CHO cells at 10 uM measured after 1 hr relative to control

| Compound | inhibition [1] | inhibition [2] | inhibition [3] | inhibition [4] |
| --- | --- | --- | --- | --- |
| Cc1ccc(NC2=NC(=O)/C(=C/c3ccc(-c4ccc(C(=O)O)cc4)o3)S2)cc1Cl | – | – | 14% | 33% |
| CC1=C(C#N)C(=O)N(CCc2c[nH]c3ccccc23)C(=O)/C1=C\Nc1ccc(S(N)(=O)=O)cc1 | – | – | 32% | 34% |
| CC1CCC(N2NC(=O)/C(=C\c3cccn3-c3ccc(S(N)(=O)=O)cc3)C2=O)CC1Cl (configuration not stated) | – | 41% | 31% | – |
| COc1cc(NC(C)CCCN)c2nc(C)ccc2c1OC1CCC(F)CC1 (configuration not stated) | 12% | 45% | – | – |

Now from value to compound:

| inhibition [1] | inhibition [2] | inhibition [3] | inhibition [4] | Compound |
| --- | --- | --- | --- | --- |
| 46% | 65% | – | – | COc1cc(NCCCCCCCC2CCCCN2)c2ncccc2c1 (configuration not stated) |
| 31% | 36% | – | – | COc1cc(NCCCCCCC2CCCCN2)c2ncccc2c1 (configuration not stated) |
